The target of the experiment is human ACC2 (Homo sapiens (Human), UniProt O00763). Nature of the experiment: ACC2 assay: spectrophotometric 384 well assay (coupled lactate dehydrogenase/pyruvate kinase). Particulars: hACC2 construct lacking the 128 N-terminal amino acids, 25° C., 340 nm. The format is biochemical. As to the method: Spectrophotometric 384 Well Assay
Sequence of human ACC2 (O00763 129-2458): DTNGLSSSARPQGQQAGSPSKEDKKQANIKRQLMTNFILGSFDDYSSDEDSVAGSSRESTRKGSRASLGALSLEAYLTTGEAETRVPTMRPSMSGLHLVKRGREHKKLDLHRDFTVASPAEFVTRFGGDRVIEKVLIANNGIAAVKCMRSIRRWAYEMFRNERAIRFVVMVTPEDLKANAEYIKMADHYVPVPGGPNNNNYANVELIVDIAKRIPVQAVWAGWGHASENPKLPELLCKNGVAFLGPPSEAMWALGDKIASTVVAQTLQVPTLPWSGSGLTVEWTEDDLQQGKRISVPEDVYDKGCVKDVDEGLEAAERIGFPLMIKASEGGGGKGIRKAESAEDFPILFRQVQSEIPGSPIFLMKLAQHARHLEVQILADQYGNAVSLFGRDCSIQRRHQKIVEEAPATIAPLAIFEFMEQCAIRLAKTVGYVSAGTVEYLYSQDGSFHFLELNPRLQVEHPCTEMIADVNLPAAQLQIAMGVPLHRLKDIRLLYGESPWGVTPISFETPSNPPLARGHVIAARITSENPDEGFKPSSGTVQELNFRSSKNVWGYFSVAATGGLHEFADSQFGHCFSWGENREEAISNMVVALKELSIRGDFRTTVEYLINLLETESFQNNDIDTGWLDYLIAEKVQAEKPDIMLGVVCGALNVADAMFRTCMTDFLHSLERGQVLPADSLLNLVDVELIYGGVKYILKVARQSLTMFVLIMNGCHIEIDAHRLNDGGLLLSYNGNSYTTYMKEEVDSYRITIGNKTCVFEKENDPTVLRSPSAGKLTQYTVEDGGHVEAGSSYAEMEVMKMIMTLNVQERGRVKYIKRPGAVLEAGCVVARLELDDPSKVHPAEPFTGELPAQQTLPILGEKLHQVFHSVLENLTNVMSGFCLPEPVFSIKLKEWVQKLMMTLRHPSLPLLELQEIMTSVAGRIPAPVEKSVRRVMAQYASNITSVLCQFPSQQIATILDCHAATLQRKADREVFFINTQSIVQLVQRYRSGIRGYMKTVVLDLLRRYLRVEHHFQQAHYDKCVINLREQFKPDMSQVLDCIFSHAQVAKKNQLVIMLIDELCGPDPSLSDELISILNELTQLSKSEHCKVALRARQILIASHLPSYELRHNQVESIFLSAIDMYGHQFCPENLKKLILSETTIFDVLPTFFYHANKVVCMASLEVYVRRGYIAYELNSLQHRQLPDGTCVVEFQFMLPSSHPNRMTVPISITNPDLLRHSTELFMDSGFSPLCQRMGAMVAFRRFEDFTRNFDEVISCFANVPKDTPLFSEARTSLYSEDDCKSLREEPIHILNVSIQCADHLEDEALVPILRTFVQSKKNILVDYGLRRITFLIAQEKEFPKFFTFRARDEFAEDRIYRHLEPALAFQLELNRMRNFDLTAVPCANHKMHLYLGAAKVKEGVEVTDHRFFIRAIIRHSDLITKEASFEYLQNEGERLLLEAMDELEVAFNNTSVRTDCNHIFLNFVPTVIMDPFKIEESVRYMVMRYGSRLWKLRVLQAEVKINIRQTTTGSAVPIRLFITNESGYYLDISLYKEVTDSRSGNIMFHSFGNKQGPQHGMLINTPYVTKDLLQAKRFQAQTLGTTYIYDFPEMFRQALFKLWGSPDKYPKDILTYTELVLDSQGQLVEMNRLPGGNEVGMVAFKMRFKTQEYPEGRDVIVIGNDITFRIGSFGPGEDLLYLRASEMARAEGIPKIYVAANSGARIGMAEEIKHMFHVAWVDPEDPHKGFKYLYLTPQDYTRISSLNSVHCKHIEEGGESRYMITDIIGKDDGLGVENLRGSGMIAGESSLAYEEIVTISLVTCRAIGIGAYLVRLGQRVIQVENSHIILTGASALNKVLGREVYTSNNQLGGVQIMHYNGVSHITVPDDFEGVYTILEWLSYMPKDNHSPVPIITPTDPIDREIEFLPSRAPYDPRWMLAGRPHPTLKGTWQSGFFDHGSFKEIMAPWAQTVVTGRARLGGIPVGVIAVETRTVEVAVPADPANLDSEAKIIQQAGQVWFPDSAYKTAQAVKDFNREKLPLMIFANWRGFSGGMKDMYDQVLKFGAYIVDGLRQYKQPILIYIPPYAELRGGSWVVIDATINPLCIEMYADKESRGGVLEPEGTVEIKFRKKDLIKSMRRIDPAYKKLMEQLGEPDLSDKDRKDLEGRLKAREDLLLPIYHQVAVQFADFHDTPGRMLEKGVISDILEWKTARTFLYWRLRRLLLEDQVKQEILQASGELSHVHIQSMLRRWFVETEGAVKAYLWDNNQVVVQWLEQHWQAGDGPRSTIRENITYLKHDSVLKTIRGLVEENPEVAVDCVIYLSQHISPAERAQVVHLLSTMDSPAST
Malonyl CoA formation by acetyl CoA carboxylases is stoichiometrically linked to the consumption of ATP. ACC2 activity is measured in a […] kinetic method measuring ADP generated during the ACC reaction using a coupled lactate dehydrogenase/pyruvate kinase reaction.
For biological testing, a human ACC2 construct which lacks the 128 amino acids at the N-terminus for increased solubility (nt 385-6966 in Genbank entry AJ575592) is cloned. The protein is then expressed in insect cells using a baculoviral expression system. Protein purification is performed by anion exchange.
All compounds are dissolved in dimethyl sulfoxide (DMSO) to a concentration of 10 mM.
Assay reactions are then carried out in 384-well plates, with hACC2 in an appropriate dilution and at final assay concentrations (f.c.) of 100 mM Tris (pH 7.5), 10 mM trisodium citrate, 25 mM KHCO3, 10 mM MgCl2, 0.5 mg/ml BSA, 3.75 mM reduced L-glutathione, 15 U/ml lactate dehydrogenase, 0.5 mM phosphoenolpyruvate, 15 U/ml pyruvate kinase, compounds at different concentrations at final DMSO concentrations of 1%.
The enzymatic reaction is then started by addition of a mixture of NADH, acetyl Coenzyme A (both […].) and ATP (500 uM f.c.). The decrease of the optical density (slope S) is then determined at 25° C. at a wavelength of 340 nm over 15 minutes in a spectrophotometric reader.
Each assay microtiter plate contains wells with vehicle instead of compound as controls for the non-inhibited enzyme (100% CTL; ‘HIGH’) and wells without acetyl-CoA as controls for non-specific NADH degradation (0% CTL; ‘LOW’).
The slope S is used for calculation of % CTL=(S(compound)−S(‘LOW’))/(S(‘HIGH’)−S(‘LOW’))*100. Compounds will give values between 100% CTL (no inhibition) and 0% CTL (complete inhibition).
For IC50 value determination, the sample slope in the presence of the test compound after subtraction of the low controls (S(compound)−S(‘LOW’)) are used.
An IC50 value is derived from the compound slopes at different dosages after subtraction of the low controls (S(compound)-S(‘LOW’)) by non-linear regression curve fitting (equation y=(A+((B−A)/(1+((C/x)^D))))).
As a reminder, the IC50 is the concentration that gives 50% inhibition. Read a low IC50 as inhibition by little substance. `CC(=O)NC(C)c1ccc(CN2CCc3cc(C(F)(F)F)ccc3C2)cc1` (centres unmarked) [Example 1.001, N-{1-[4-(6-Trifluoromethyl-3,4-dihydro-1H-isoquinolin-2-ylmethyl)-phenyl]-ethyl}-acetamide] yielded an IC50 of 293 nM.

Consider `COC(=O)c1ccc2c(c1)CCN(Cc1ccc(C(C)NC(C)=O)cc1)C2` (centres unmarked) [Example 1.002], for which half-maximal inhibition (IC50) was put at 524 nM.

On to `CC(=O)NC(C)c1ccc(CN2CCc3cc(Br)ccc3C2)cc1` (centres unmarked) [Example 1.003], for which half-maximal inhibition (IC50) was put at 265 nM.

Turning to `CC(=O)NC(C)c1ccc(CN2CCc3c(Cl)cccc3C2)cc1` (centres unmarked) [Example 1.004], half-maximal inhibition (IC50) was put at 206 nM.

In turn, `CC(=O)NC(C)c1ccc(CN2CCc3c(cccc3OC(C)C)C2)cc1` (centres unmarked) [Example 1.005] yielded an IC50 of 252 nM.

Compound `CC(=O)NC(C)c1ccc(CN2CCc3c(cccc3OCC3CC3)C2)cc1` (centres unmarked) [Example 1.006] yielded an IC50 of 878 nM.

As to `CC(=O)NC(C)c1ccc(CN2CCc3cc(OC(F)(F)F)ccc3C2)cc1` (centres unmarked) [Example 1.007], the IC50 was found to be 291 nM.

Compound `CC(=O)NC(C)c1ccc(CN2CCc3c(cccc3OCC3CC3(F)F)C2)cc1` (centres unmarked) [Example 1.008] registered an IC50 of 492 nM.

For the compound `CC(=O)NC(C)c1ccc(CN2CCc3cc(OCC(C)C)ccc3C2)cc1` (centres unmarked) [Example 1.009], 102 nM corresponded to half-maximal inhibition (IC50).

Take `CC(=O)NC(C)c1ccc(CN2CCc3cc(OCC(F)F)ccc3C2)cc1` (centres unmarked) [Example 1.010]: the IC50 was determined as 614 nM.

For `CC(=O)NC(C)c1ccc(CN2CCc3cc(OCC4CCC4)ccc3C2)cc1` (centres unmarked) [Example 1.011], the IC50 turned out to be 67 nM.

Take `CC(=O)NC(C)c1ccc(CN2CCc3cc(OCCC4CC4)ccc3C2)cc1` (centres unmarked) [Example 1.012]: the IC50 was 52 nM.

With `CC(=O)NC(C)c1ccc(CN2CCc3cc(OCCCF)ccc3C2)cc1` (centres unmarked) [Example 1.013], the IC50 turned out to be 146 nM.

Take `CC(=O)NC(C)c1ccc(CN2CCc3cc(OCCC(F)(F)F)ccc3C2)cc1` (centres unmarked) [Example 1.014]: the IC50 came out at 95 nM.

Compound `CC(=O)NC(C)c1ccc(CN2CCc3cc(OCC4CC(F)(F)C4)ccc3C2)cc1` (centres unmarked) [Example 1.015] displayed an IC50 of 47 nM.

As to `CCOc1ccc2c(c1)CCN(Cc1ccc(C(C)NC(C)=O)cc1)C2` (centres unmarked) [Example 1.016], the IC50 worked out at 273 nM.

The compound `CCCOc1ccc2c(c1)CCN(Cc1ccc(C(C)NC(C)=O)cc1)C2` (centres unmarked) [Example 1.017] had an IC50 of 60 nM.

In turn, `CCOc1cccc2c1CCN(Cc1ccc(C(C)NC(C)=O)cc1)C2` (centres unmarked) [Example 1.018] returned an IC50 of 407 nM.

For the compound `CCCOc1cccc2c1CCN(Cc1ccc(C(C)NC(C)=O)cc1)C2` (centres unmarked) [Example 1.019], the IC50 stood at 326 nM.

As to `CC(=O)NC(C)c1ccc(CN2CCc3cc(OC4CCC4)ccc3C2)cc1` (centres unmarked) [Example 1.020], the IC50 came to 110 nM.

As to `CC(=O)NC(C)c1ccc(CN2CCc3cc(OC(C)C)ccc3C2)cc1` (centres unmarked) [Example 1.021], 110 nM corresponded to half-maximal inhibition (IC50).

`CC(=O)NC(C)c1ccc(CN2CCc3c(ccc(OCC4CC4)c3Br)C2)cc1` (centres unmarked) [Example 1.022] came in with an IC50 of 126 nM.

Take `COc1c(OCC2CC2)ccc2c1CCN(Cc1ccc(C(C)NC(C)=O)cc1)C2` (centres unmarked) [Example 1.023]: 133 nM corresponded to half-maximal inhibition (IC50).

As for `COc1ccc2c(c1Cl)CCN(Cc1ccc(C(C)NC(C)=O)cc1)C2` (centres unmarked) [Example 1.024], 415 nM corresponded to half-maximal inhibition (IC50).

Turning to `CC(=O)NC(C)c1ccc(CN2CCc3c(ccc(OCC4CC4(F)F)c3Cl)C2)cc1` (centres unmarked) [Example 1.025], the midpoint of inhibition, the IC50, lay at 49 nM.

With `CC(=O)NC(C)c1ccc(CN2CCc3c(ccc(OCC4CC4)c3Cl)C2)cc1` (centres unmarked) [Example 1.026], the half-inhibitory concentration (IC50) amounted to 43 nM.

Compound `CC(=O)NC(C)c1ccc(CN2CCc3c(cccc3C(F)F)C2)cc1` (centres unmarked) [Example 1.027] gave a half-maximal inhibitory concentration (IC50) of 699 nM.

`CC(=O)NC(C)c1ccc(CN2CCc3cc(C(F)F)ccc3C2)cc1` (centres unmarked) [Example 1.028] gave an IC50 of 789 nM.

In the case of `CC(=O)NC(C)c1ccc(CN2CCc3c(ccc4c3OCCO4)C2)cc1` (centres unmarked) [Example 1.029], inhibition was half-maximal at 228 nM (IC50).

On to `CC(=O)NC(C)c1ccc(CN2CCc3c(ccc(OCC(C)C)c3Cl)C2)cc1` (centres unmarked) [Example 1.030], for which the IC50 is 58 nM.

As to `CC(=O)NC(C)c1ccc(CN2CCc3c(ccc(OCC4CC4(F)F)c3Br)C2)cc1` (centres unmarked) [Example 1.031], the IC50 stood at 76 nM.

As to `CCOc1ccc2c(c1Cl)CCN(Cc1ccc(C(C)NC(C)=O)cc1)C2` (centres unmarked) [Example 1.032], 263 nM corresponded to half-maximal inhibition (IC50).

`CC(=O)NC(C)c1ccc(CN2CCc3c(ccc(OCC4CCC4)c3Cl)C2)cc1` (centres unmarked) [Example 1.033]: 44 nM corresponded to half-maximal inhibition (IC50).

The compound `CC(=O)NC(C)c1ccc(CN2CCc3c(ccc(OCCC(F)(F)F)c3Cl)C2)cc1` (centres unmarked) [Example 1.034] displayed an IC50 of 54 nM.

As to `CC(=O)NC(C)c1ccc(CN2CCc3c(ccc(OCCC4CC4)c3Cl)C2)cc1` (centres unmarked) [Example 1.035], the IC50 is 61 nM.

As to `COc1c(OCc2ccccc2)ccc2c1CCN(Cc1ccc(C(C)NC(C)=O)cc1)C2` (centres unmarked) [Example 1.036], the IC50 was 101 nM.

On to `CC(=O)NC(C)c1ccc(CN2CCc3c(ccc(OC4CCC4)c3Cl)C2)cc1` (centres unmarked) [Example 1.037], for which half-maximal inhibition (IC50) was put at 80 nM.

The compound `CC(=O)NC(C)c1ccc(CN2CCc3c(ccc(OCC(F)F)c3Cl)C2)cc1` (centres unmarked) [Example 1.038] returned an IC50 of 218 nM.

Consider `CC(=O)NC(C)c1ccc(CN2CCc3c(ccc(OCCCF)c3Cl)C2)cc1` (centres unmarked) [Example 1.039], for which the concentration for half-maximal inhibition (IC50) stood at 57 nM.

For the compound `CCCOc1ccc2c(c1)CCN(Cc1ccc([C@H](C)NC(=O)C3CC3)cc1)C2` [Example 1.041], half-maximal inhibition (IC50) required 57 nM.

For `C[C@H](NC(=O)C1CC1)c1ccc(CN2CCc3cc(OCC4CC4)ccc3C2)cc1` [Example 1.042], half-maximal inhibition (IC50) was put at 65 nM.

Regarding `CCOc1ccc2c(c1)CCN(Cc1ccc([C@H](C)NC(=O)C3CC3)cc1)C2` [Example 1.043], the IC50 was 180 nM.

`C[C@H](NC(=O)C1CC1)c1ccc(CN2CCc3cc(OC4CCC4)ccc3C2)cc1` [Example 1.044] yielded an IC50 of 193 nM.

As for `C[C@H](NC(=O)C1CC1)c1ccc(CN2CCc3cc(OCCC(F)(F)F)ccc3C2)cc1` [Example 1.045], the IC50 amounted to 83 nM.

In the case of `C[C@H](NC(=O)C1CC1)c1ccc(CN2CCc3cc(OCC(F)F)ccc3C2)cc1` [Example 1.046], 163 nM corresponded to half-maximal inhibition (IC50).

Compound `CC(C)Oc1ccc2c(c1)CCN(Cc1ccc([C@H](C)NC(=O)C3CC3)cc1)C2` [Example 1.047] yielded an IC50 of 71 nM.

Regarding `COc1c(OCC2CC2)ccc2c1CCN(Cc1ccc([C@H](C)NC(=O)C3CC3)cc1)C2` [Example 1.048], the IC50 came out at 139 nM.

Consider `C[C@H](NC(=O)C1CC1)c1ccc(CN2CCc3c(ccc(OCC4CC4(F)F)c3Cl)C2)cc1` (some centres unmarked) [Example 1.049], for which half-maximal inhibition (IC50) required 63 nM.

Compound `C[C@H](NC(=O)C1CC1)c1ccc(CN2CCc3c(ccc(OCC4CC4)c3Cl)C2)cc1` [Example 1.050] came in with an IC50 of 120 nM.

In turn, `C[C@H](NC(=O)C1CC1)c1ccc(CN2CCc3cc(OC[C@@H]4CC4(F)F)ccc3C2)cc1` [Example 1.051] had an IC50 of 31 nM.

`C[C@H](NC(=O)C1CC1)c1ccc(CN2CCc3cc(OC[C@H]4CC4(F)F)ccc3C2)cc1` [Example 1.052] showed an IC50 of 24 nM.

Compound `COc1c(OCC2CC2(F)F)ccc2c1CCN(Cc1ccc([C@H](C)NC(=O)C3CC3)cc1)C2` (some centres unmarked) [Example 1.053] came in with an IC50 of 142 nM.

Regarding `COc1c(OCCC(F)(F)F)ccc2c1CCN(Cc1ccc([C@H](C)NC(=O)C3CC3)cc1)C2` [Example 1.054], the IC50 is 269 nM.

`COc1c(OCC2CCC2)ccc2c1CCN(Cc1ccc([C@H](C)NC(=O)C3CC3)cc1)C2` [Example 1.055]: the IC50 worked out at 41 nM.

Compound `COc1c(OCC2CC(F)(F)C2)ccc2c1CCN(Cc1ccc([C@H](C)NC(=O)C3CC3)cc1)C2` [Example 1.056] yielded an IC50 of 51 nM.

Take `COc1c(OCC(C)C)ccc2c1CCN(Cc1ccc([C@H](C)NC(=O)C3CC3)cc1)C2` [Example 1.057]: the half-inhibitory concentration (IC50) came to 102 nM.

`COc1c(OCCC2CC2)ccc2c1CCN(Cc1ccc([C@H](C)NC(=O)C3CC3)cc1)C2` [Example 1.058] showed an IC50 of 137 nM.

`C[C@H](NC(=O)C1CC1)c1ccc(CN2Cc3ccc(OCC4CC4)cc3C(F)C2)cc1` (some centres unmarked) [Example 1.059] gave an IC50 of 58 nM.

`C[C@H](NC(=O)C1CC1)c1ccc(CN2Cc3ccc(OCC4CC4(F)F)cc3C(F)C2)cc1` (some centres unmarked) [Example 1.060] gave an IC50 of 29 nM.

`C[C@H](NC(=O)C1CC1)c1ccc(CN2Cc3ccc(OCC4CC4(F)F)cc3C(O)C2)cc1` (some centres unmarked) [Example 1.061] returned an IC50 of 140 nM.

`CC(=O)N[C@@H](C)c1ccc(CN2CCc3c(ccc(OCC4(C(F)(F)F)CC4)c3Cl)C2)cc1` [Example 1.062] returned an IC50 of 55 nM.

Consider `CC(=O)N[C@@H](C)c1ccc(CN2CCc3cc(OCCC(F)F)ccc3C2)cc1` [Example 1.063], for which the concentration for half-maximal inhibition (IC50) is 45 nM.

The values are drawn from patent publication US9340510B2, “Tetrahydroisoquinoline derivatives, pharmaceutical compositions and uses thereof” (Boehringer Ingelheim International GmbH, priority 2014, dated 2016).
